The source of these data is the Kinase Knowledgebase extract (Sharma et al. 2016).

In the experiment the target is CDK2 (UniProt P24941). The experiment can be described thus: Enzyme Assay. Particulars: concentration not given here.

`NC(=O)c1cc(Cc2ccccc2)sc1NC(=O)c1cc2ccccc2[nH]1` returned an inhibition of 100%.

Consider `COc1ccc(/C=C\C(=O)Nc2sc(C(C)c3ccccc3)cc2C(N)=O)cc1` (centres undefined), for which the inhibition came out at 100%.

`NC(=O)c1cc(Cc2ccccc2)sc1NC(=O)CCN1C(=O)C=CC1=O` had an inhibition of 100%.

On to `NC(=O)c1c(NC(=O)c2cn[nH]c2)sc2c1CCCC2`, for which the inhibition came out at 100%.

The molecule `COc1ccc(C(=O)Nc2sc(C)c(C)c2C(N)=O)cc1OC` yielded an inhibition of 100%.

`NC(=O)c1cc(Cc2ccccc2)sc1NC(=O)c1ccc2c(c1)C=NC2`: the inhibition stood at 100%.

Molecule `Cc1csc(NC(=O)C(C)NC(=O)c2ccccc2)c1C(N)=O` (centres undefined) gave an inhibition of 100%.

On to `NC(=O)c1c(NC(=O)Cc2ccccc2)sc2c1CCCC2`, for which the inhibition is 100%.

Turning to `CC(C)c1cc(C(N)=O)c(NC(=O)c2ccc(O)cc2)s1`, the inhibition worked out at 100%.

As for `Cc1sc(NC(=O)CNc2cccnc2)c(C(N)=O)c1C`, the inhibition stood at 100%.

On to `CN(C)c1cccc(C(=O)Nc2sc(Cc3ccccc3)cc2C(N)=O)c1`, for which the inhibition came to 100%.

In turn, `NC(=O)/C=C\C(=O)N(C(N)=O)c1sc(Cc2ccccc2)cc1C(N)=O` came in with an inhibition of 100%.

`NC(=O)c1cc(Cc2ccccc2)sc1NC(=O)c1ccc2[nH]cnc2c1` showed an inhibition of 100%.

Consider `Cc1sc(NC(=O)c2nc3ccccc3nc2O)c(C(N)=O)c1C`, for which the inhibition is 100%.

Molecule `NC(=O)c1c(NC(=O)c2cccnc2)sc2c1CCCC2` came in with an inhibition of 100%.

On to `CN1CCc2c(sc(NC(=O)c3cc4c(Cl)cc(Cl)cc4[nH]3)c2C(N)=O)C1`, for which the inhibition stood at 100%.

`Cc1csc(CC(=O)c2c(-c3ccccc3)noc2C)c1C(N)=O` gave an inhibition of 100%.

Turning to `CC(C)c1cc(C(N)=O)c(NC(=O)C2CCCN2C)s1` (centres undefined), the inhibition is 100%.

On to `NC(=O)c1cc(-c2ccccc2)sc1NC(=O)Cc1cccc(F)c1`, for which the inhibition is 100%.

Molecule `CC(C)c1cc(C(N)=O)c(NC(=O)CC2CCCC2)s1` showed an inhibition of 100%.

For the molecule `CN1CCc2c(sc(NC(=O)C(Cc3ccccc3)NC(=O)c3ccccc3)c2C(N)=O)C1` (centres undefined), the inhibition worked out at 100%.

Molecule `CN(C)CCCC(=O)Nc1sc(Cc2ccccc2)cc1C(N)=O` gave an inhibition of 100%.

On to `NC(=O)c1c(NC(=O)c2ccccn2)sc2c1CCCC2`, for which the inhibition was 100%.

For the molecule `CC(C)c1ccc(C(=O)Nc2sc(Cc3ccccc3)cc2C(N)=O)cc1`, the inhibition was 100%.

The molecule `Cc1cccc(C(=O)Nc2sc(C(C)C)cc2C(N)=O)c1C` had an inhibition of 100%.

Molecule `COc1cc(C(=O)Nc2scc(C)c2C(N)=O)cc(OC)c1C` registered an inhibition of 100%.

Turning to `NC(=O)c1cc(Cc2ccccc2)sc1NC(=O)/C=C\c1ccc(O)cc1`, the inhibition stood at 100%.

The molecule `CC(c1ccccc1)c1cc(C(N)=O)c(NC(=O)c2cc3ccccc3s2)s1` (centres undefined) registered an inhibition of 100%.

Molecule `COc1cccc(C(=O)Nc2sc(-c3ccccc3)cc2C(N)=O)c1` showed an inhibition of 100%.

`CC1=C(C(=O)Nc2sc(C(C)c3ccccc3)cc2C(N)=O)Cc2ccccc21` (centres undefined): the inhibition turned out to be 100%.

As for `CC(C)c1cc(C(N)=O)c(NC(=O)c2cccc(C#N)c2)s1`, the inhibition is 100%.

In turn, `COc1ccc2[nH]c(C)c(CC(=O)Nc3sc4c(c3C(N)=O)CCN(C)C4)c2c1` had an inhibition of 100%.

In the case of `Cc1ccccc1CC(=O)Nc1sc(C(C)C)cc1C(N)=O`, the inhibition came to 100%.

Molecule `Cc1csc(NC(=O)C2c3ccccc3-c3ccccc32)c1C(N)=O` yielded an inhibition of 100%.

The molecule `NC(=O)c1cc(-c2ccccc2)sc1NC(=O)c1cc2ccccc2o1` displayed an inhibition of 100%.

Molecule `NC(=O)c1c(NC(=O)c2ccccc2O)sc2c1CCCC2` yielded an inhibition of 100%.

As for `Cc1cc(C(=O)Nc2sc3c(c2C(N)=O)CCCC3)no1`, the inhibition came out at 100%.

Molecule `NC(=O)c1c(NC(=O)c2ccccc2)sc2c1CCCC2` registered an inhibition of 100%.

For the molecule `CC(c1ccccc1)c1cc(C(N)=O)c(NC(=O)c2ccc3ccccc3n2)s1` (centres undefined), the inhibition worked out at 100%.

For the molecule `Cc1csc(NC(=O)Cc2c(C)[nH]c3ccccc23)c1C(N)=O`, the inhibition came to 100%.

The molecule `CC(NC(=O)C(C)Nc1sc(-c2ccccc2)cc1C(N)=O)C(=O)O` (centres undefined) returned an inhibition of 100%.

Molecule `CN1CCc2c(sc(NC(=O)C(Cc3c[nH]cn3)NC(=O)c3ccccc3)c2C(N)=O)C1` (centres undefined) gave an inhibition of 100%.

The molecule `CN1CCc2c(sc(NC(=O)Cc3c[nH]c4cccc(Cl)c34)c2C(N)=O)C1` yielded an inhibition of 100%.

With `NC(=O)c1cc(Cc2ccccc2)sc1NC(=O)c1cccc2[nH]ccc12`, the inhibition was determined as 100%.

In the case of `Cc1sc(NC(=O)c2ccc(C(F)(F)F)cc2)c(C(N)=O)c1C`, the inhibition came out at 100%.

For the molecule `Cn1cccc1C(=O)Nc1sc2c(c1C(N)=O)CCCC2`, the inhibition amounted to 100%.

As to `COc1cccc(OC)c1C(=O)Nc1sc(C)c(C)c1C(N)=O`, the inhibition is 100%.

With `CN(C)c1ccccc1C(=O)Nc1sc(Cc2ccccc2)cc1C(N)=O`, the inhibition came to 100%.

As to `COc1ccccc1C(=O)Nc1sc(-c2ccccc2)cc1C(N)=O`, the inhibition was 100%.

Take `CC(c1ccccc1)c1cc(C(N)=O)c(NC(=O)C2CC(=O)c3ccccc32)s1` (centres undefined): the inhibition is 100%.

In the case of `CC(=O)N1CCC(C(=O)Nc2sc(C(C)c3ccccc3)cc2C(N)=O)CC1` (centres undefined), the inhibition worked out at 100%.

The molecule `Cc1nocc1C(=O)Nc1sc2c(c1C(N)=O)CCCC2` showed an inhibition of 100%.

`Cc1sc(NC(=O)c2cc(=O)c3ccccc3o2)c(C(N)=O)c1C` showed an inhibition of 100%.

`CCN(CC)CCC(=O)Nc1sc(C)c(C)c1C(N)=O` registered an inhibition of 100%.

Take `Cc1sc(NC(=O)/C=C/CNC2=CCC(=O)C=C2)c(C(N)=O)c1C`: the inhibition is 100%.

As for `CC(=O)NC(=O)C(Nc1sc(-c2ccccc2)cc1C(N)=O)C(C)C` (centres undefined), the inhibition was found to be 100%.

Regarding `CC(=O)c1ccccc1C(=O)Nc1sc(-c2ccccc2)cc1C(N)=O`, the inhibition worked out at 100%.

The molecule `Cc1cccc(CC(=O)Nc2sc(C(C)C)cc2C(N)=O)c1` returned an inhibition of 100%.

With `NC(=O)c1c(NC(=O)c2cccs2)sc2c1CCCC2`, the inhibition is 100%.

Take `Cc1noc(C)c1C(=O)Nc1sc(C(C)C)cc1C(N)=O`: the inhibition was determined as 100%.

On to `COc1ccc(C(=O)Nc2sc(-c3ccccc3)cc2C(N)=O)cc1`, for which the inhibition is 100%.

Turning to `CC(C)=CC(=O)Nc1sc2c(c1C(N)=O)CCCC2`, the inhibition was 100%.

`CC(C)c1cc(C(N)=O)c(NC(=O)C(C)c2ccccc2)s1` (centres undefined) yielded an inhibition of 100%.

With `CC(C)C(=O)Nc1sc2c(c1C(N)=O)CCCC2`, the inhibition came to 100%.

For `Cc1sc(NC(=O)c2ccccc2C(F)(F)F)c(C(N)=O)c1C`, the inhibition was found to be 100%.

In turn, `NC(=O)c1cc(-c2ccccc2)sc1NC(=O)c1ccccc1Cl` registered an inhibition of 100%.

The molecule `Cc1sc(NC(=O)c2cc(Cl)cc(Cl)c2)c(C(N)=O)c1C` had an inhibition of 100%.

In the case of `CCC(=O)Nc1sc2c(c1C(N)=O)CCCC2`, the inhibition amounted to 100%.

Turning to `Cc1sc(NC(=O)c2cccc(C(F)(F)F)c2)c(C(N)=O)c1C`, the inhibition stood at 100%.

The molecule `Cc1cnc(C(=O)Nc2sc(C(C)C)cc2C(N)=O)cn1` yielded an inhibition of 100%.

Turning to `Cc1csc(NC(=O)C2=COc3ccc(Cl)cc3C2)c1C(N)=O`, the inhibition stood at 100%.

Regarding `CN1CCc2c(sc(NC(=O)Cc3c[nH]c4ccc(F)cc34)c2C(N)=O)C1`, the inhibition came out at 100%.

`CN1CCc2c(sc(NC(=O)c3cc(O)c4ccc(Br)cc4n3)c2C(N)=O)C1` returned an inhibition of 100%.

Turning to `Cc1cc(C)cc(C(=O)Nc2sc(C(C)C)cc2C(N)=O)c1`, the inhibition was determined as 100%.

Molecule `Cc1csc(NC(=O)CCCc2cccs2)c1C(N)=O` displayed an inhibition of 100%.

On to `NC(=O)c1cc(-c2ccccc2)sc1NC(=O)Cc1ccc(O)cc1`, for which the inhibition is 100%.

With `Cc1csc(NC(=O)CCNC(=O)c2ccccc2)c1C(N)=O`, the inhibition turned out to be 100%.

With `CC(C)c1cc(C(N)=O)c(NC(=O)c2cccc(F)c2)s1`, the inhibition stood at 100%.

Molecule `COc1ccc(/C=C\C(=O)Nc2scc(C)c2C(N)=O)cc1OC` showed an inhibition of 100%.

The molecule `CNC(=O)CN(C(=O)c1ccccc1)c1scc(C)c1C(N)=O` came in with an inhibition of 100%.

Take `Cc1cccc(NC(=O)c2ccccc2C(=O)Nc2sc3c(c2C(N)=O)CCN(C)C3)c1`: the inhibition was found to be 100%.

With `CC(=O)c1ccc(C(=O)Nc2sc(Cc3ccccc3)cc2C(N)=O)cc1`, the inhibition came to 100%.

Turning to `Cc1sc(NC(=O)C2(c3ccccc3)CCCC2)c(C(N)=O)c1C`, the inhibition is 100%.

`NC(=O)c1cc(-c2ccccc2)sc1NC(=O)Cc1ccc(F)cc1`: the inhibition stood at 100%.

`CC(c1ccccc1)c1cc(C(N)=O)c(NC(=O)c2ccc3ncccc3c2)s1` (centres undefined) registered an inhibition of 100%.

Take `Cc1sc(NC(=O)CCC(=O)c2cccs2)c(C(N)=O)c1C`: the inhibition was determined as 100%.

In turn, `Cc1ccc(C(=O)Nc2sc(C(C)C)cc2C(N)=O)c(C)c1` returned an inhibition of 100%.

Take `NC(=O)c1cc(Cc2ccccc2)sc1NC(=O)COCc1ccccc1`: the inhibition came to 100%.

In turn, `COc1cc(C(=O)Nc2sc3c(c2C(N)=O)CCN(C)C3)cc(OC)c1OC` showed an inhibition of 100%.

`NC(=O)c1c(NC(=O)c2ccsc2)sc2c1CCCC2` yielded an inhibition of 100%.

In turn, `CCCN(C(=O)/C=C\C(N)=O)c1sc(-c2ccccc2)cc1C(N)=O` came in with an inhibition of 100%.

As to `CC(=O)NC(C(=O)Nc1scc(C)c1C(N)=O)c1ccccc1` (centres undefined), the inhibition stood at 100%.

In turn, `CC(C)c1cc(C(N)=O)c(NC(=O)/C=C\c2ccccc2)s1` showed an inhibition of 100%.

With `CC(=O)Nc1ccc(Br)c(C(=O)Nc2sc3c(c2C(N)=O)CCN(C)C3)c1`, the inhibition is 100%.

`CC(c1ccccc1)c1cc(C(N)=O)c(NC(=O)CNC(=O)c2ccccc2)s1` (centres undefined) had an inhibition of 100%.

Turning to `Cc1nc2cc(C(=O)Nc3sc(C)c(C)c3C(N)=O)ccc2[nH]1`, the inhibition is 100%.

Molecule `Cc1csc(NC(=O)CCCCCN2C(=O)C=CC2=O)c1C(N)=O` showed an inhibition of 100%.

For `NC(=O)c1cc(-c2ccccc2)sc1NC(=O)CCN1CCCCC1`, the inhibition is 100%.

`CC(C)c1cc(C(N)=O)c(NC(=O)C2CC3C=CC2C3)s1` (centres undefined) registered an inhibition of 100%.

The term inhibition denotes the drop in the measured response relative to a control, in per cent. The low end stands for a response near the control, the high end for a response far below the control.
